The subject of series [1] is Human Peripheral Blood Mononuclear Cell (PBMC). In words: Toxicity on peripheral blood mononuclear cells (MTT). The note with it: for Absorbance 490 nm, replicate 1 / Absorbance 490 nm, replicate 2 / Absorbance 490 nm, replicate 3 / Absorbance 490 nm, replicate 4 / Mean value (absorbance) / Cell viability (%): 24 hrs, MTT; for Cell viability (%): relative to negative control. The series is classed as cell-based. The method, then: General operations: normal peripheral blood cells were isolated by Ficoll to obtain mononuclear cells. The mononuclear cells were rinsed by the PBS for three times, and added with IMDM+10% FBS to prepare suspensions. […] The suspensions were then inoculated into 96-well plates, with each hole containing 25 thousands cells per 100 μL of the culture medium, and cultured overnight at 37° C.
Treatment: because the proliferation of the PBMCs is very limited and the PBMCs quickly enter a decline phase. Thus, the cell viability was measured by the MTT assay after 24 hrs of culture. […] The group where PBMCs were treated by the sterile deionized water was selected as the negative control group.
1. Experimental cells: normal peripheral blood cells were isolated by Ficoll to obtain mononuclear cells. The mononuclear cells were rinsed by the PBS for three times, added with IMDM+10% FBS to prepare suspensions, […].
2. […] Then the 96-well plates were transferred into an incubator at 37° C. for culture. […] After another 24 hrs of cultivation, 20 μL of MTT was added to each hole, and the plates were incubated for 3 hrs in the incubator (37° C., 5% CO2). Solution in each hole was then removed and replaced by 150 μL of DMSO.

Series [2] concerns human breast carcinoma cell line MCF-7. The series is described as follows: Inhibition rate at 10 μM versus chemotherapeutic drugs, MCF-7 (MTT). The series is classed as cell-based. The note with it: MCF7, MCF-7, 10 μM of drug. The source says: (§1) As a drug for target therapy, the erlotinib is applicable to a third-line treatment of locally advanced or metastatic non-small cell lung cancer when two or more than two chemotherapies are failed. Currently, the gemcitabine is clinically utilized as the drug of the first-line therapy in treating advanced non-small cell lung cancer and the metastatic breast cancer. […] 1. Experimental cell lines and related chemical reagents: sources and cultivation of the human lung adenocarcinoma cells A549, the human lung squamous carcinoma cell line H460, the human breast carcinoma cell line MCF-7 are described in the above. […] Then the 96-well plates were transferred into the incubator (37° C., 5% CO2) for culture. […] The anti-tumor effects of the above drugs were measured by the MTT assay. The number of viable cells in the negative control groups at 0 hr was taken as a basis to calculate the anti-tumor effects.

For series [3], the system named is human lung squamous carcinoma cell line H460. In words: Inhibition rate at 10 μM versus chemotherapeutic drugs, H460 (MTT). Type of series: cell-based. The conditions noted are these: NCI-H460, H460, 10 μM of drug.
From the text: as §1

Series [4] concerns human lung adenocarcinoma cells A549. In words: Inhibition rate at 10 μM versus chemotherapeutic drugs, A549 (MTT). The series is classed as cell-based. The conditions noted are these: A549, 10 μM of drug.
From the text: as §1

The subject of series [5] is human breast cancer cells MCF-7. The series is described as follows: MTT growth inhibition of MCF-7 cells (IC50). Type of series: cell-based. The conditions noted are these: MCF7, 48 hrs of treatment. The procedure:
(§2) 2. […] Solution in each hole was then removed and replaced by 150 μL of DMSO.

In series [6] the test system is human cervical cancer cells HeLa. The series is described as follows: MTT growth inhibition of HeLa cells (IC50). The series is classed as cell-based. The conditions noted are these: 48 hrs of treatment. The procedure: as §2
Series [7] has as its system human lung squamous carcinoma cells H460. The series is described as follows: MTT growth inhibition of H460 cells (IC50). The series is classed as cell-based. The conditions noted are these: NCI-H460, 48 hrs of treatment. The method, then:
as §2

For series [8], the system named is human lung adenocarcinoma cells A549. In words: MTT growth inhibition of A549 cells (IC50). The series is classed as cell-based. The conditions noted are these: 48 hrs of treatment. The procedure:
as §2

In series [9] the test system is human pancreatic cancer cells PANC-1. In words: cells. The series is classed as cell-based. The note with it: 48 hrs of treatment, MTT, read-out: IC50 on the growth of the PANC-1 cells. The procedure: as §2
The next series has as its system rat cardiomyocytes. The conditions noted are these: for Relative ratio of ATP/total protein, Mean value (%) / Relative ratio of ATP/total protein, replicate 1 / Relative ratio of ATP/total protein, replicate 2 / Relative ratio of ATP/total protein, replicate 3: both, SD, rat. The method, then: General operations: 1-2 day old neonatal SD rats (female or male) were selected and cardiomyocytes were isolated in sterile condition. […] The cardiotoxicity of the above drugs were represented by a ratio of ATP/total protein. […] The group where […] were treated by the sterile deionized water was selected as the negative control group.
1. Experimental cells: 1-2 day old neonatal SD rats (female or male) were selected and sterilized. Then ventricular muscles were collected and digested by trypsin to prepare cardiomyocyte suspensions. The suspensions were cultured in the incubator (37° C., 5% CO2), and primary cardiomyocytes were cultured by differential adhesion.
2. […] After another 6 hrs of cultivation, the culture solution in each hole was replaced by the normal culture solution not containing any drugs, and incubated for 42 hrs in the incubator (37° C., 5% CO2). Solution in each hole was then removed, and cells therein were rinsed by the PBS for three times, digested by the trypsin, and gathered into two parts. One part of the cells was utilized to measure the ATP level by the reporter gene assay, and the other part of the cells was utilized to measure the cellular protein concentration by BAC assay. The ratio of ATP (ng) to the protein concentration (μg) was calculated, and the ratio of each experimental group is divided by the ratio of the contrast group to obtain the relative ratio of ATP/total protein, experimental results were listed in Table 4.

Series [10] has as its system human lung squamous carcinoma cells H460 xenograft. In words: H460 xenograft tumor growth in nude mice. Type of series: in vivo. The note with it: 75 mg/kg oral, three times each week. The method, then: 1.1 Preparation of experimental animals: 30 nude mice with equal numbers of females and males were fed in normal conditions in the laboratory for between 3 and 5 days.
Preparation of H460 cells: H460 tumor cells were normally cultured, and diluted using the PBS so as to prepare a suspension of tumor cells having a concentration of 7.5×10^6 tumor cells per milliliter.
1.3 Inoculation of tumor cells: the suspension of the tumor cells was fully shaken and 0.2 mL of the suspension was then sucked by a sterile syringe having a capacity of 1 mL. The tumor cells were then inoculated into armpits of the nude mice via subcutaneous injection. The inoculated mice were then fed for between 2 and 3 days in normal conditions. When the tumor tissue grew to a size with a long axis of approximately 3 mm and a short axis of approximately 2 mm, all the nude mice having the tumor tissues were randomly divided into three groups, which were utilized in subsequent administration experiments.
2.1 Control group: five male mice and five female mice having tumor tissues were orally administered with ultrapure water for three times each week (respectively at Monday, Wednesday, and Friday afternoons), and the administered volume was 0.3 mL for each time.
3.2. Acquisition of sizes of tumor tissues in the nude mice: the sizes of the tumor tissues in the nude mice were measured three times per week (respectively at Monday, Wednesday, and Friday afternoons). An electronic vernier caliper was utilized to measure the long axis and the short axis of the tumor tissues, and an accuracy of the data was 0.01 mm.
3.4 Finish time of the experiments: when the tumor tissues in the nude mice of the control group reach an average size of 1000 mm^3 (Volume=long axis×short axis 2×0.5236), the weights and the sizes of the tumor tissues of the nude mice were recorded, and then the experiments were stopped and the nude mice were treated.
3.5 Treatment of nude mice when finishing the experiments: the nude mice were killed, arranged according to different groups, and photographed. Six representative mice were selected from each group and photographed. Then the tumor tissues were respectively isolated, weighed, placed at corresponding positions, and photographed.

The test system of series [11] is human liver cancer cells HepG2. The series is described as follows: MTT growth inhibition of HepG2 cells (IC50). Type of series: cell-based. The note with it: 48 hrs of treatment. The procedure:
as §2

Where [12] appears, read: contrast chemotherapeutic drugs, 10 μM (other concentrations).

Where two headings read alike, the source gives them in different places.

Turning to `O=c1[nH]cc(F)c(=O)[nH]1` [5-FU, 5-fluorouracil], in [1] (setting [12]), the “Absorbance 490 nm, replicate 1” value came out at 0.493; the “Absorbance 490 nm, replicate 2” value came to 0.484; the “Absorbance 490 nm, replicate 3” value worked out at 0.525; the “Absorbance 490 nm, replicate 4” value is reported as 0.461. In series [1] (setting [12]), the “Mean value (absorbance)” value came out at 0.491 and the “Cell viability (%)” value turned out to be 61.4%. For the same compound, the inhibition (in general, the share of the control response that was lost under treatment) at 10 µM in [2] is 15.8%.

Take `Nc1ccn([C@@H]2O[C@H](CO)[C@@H](O)C2(F)F)c(=O)n1` [Gemcitabine, gemcitabine]: the inhibition at 10 µM in series [3] was determined as 4.3%; in series [4] it was 6.9%; in [2] it was 40.1%.

Take `C#Cc1cccc(Nc2ncnc3cc(OCCOC)c(OCCOC)cc23)c1` [Erlotinib, erlotinib]: the inhibition at 10 µM in series [3] worked out at 33.1%; in series [4] it was 30.3%.

`C[S+]([O-])CCCCN=C=S` (centres unmarked) [Sulforaphane, 1-isothiocyanato-4-(methysulfinyl)-butane]: the IC50 (as a rule, the concentration that gives 50% inhibition) came out at 19.5 µM in [5]; 25.8 µM in [6]; 34.6 µM in series [7]; 14.7 µM in series [8]; 6.73 µM in series [9]; 47.3 µM in [11]. Also, the “Absorbance 490 nm, replicate 1” value is reported as 0.702 in series [1] (10 μM), 0.655 in [1] (30 μM) and 0.663 in series [1] (50 μM). In addition, the entries for the “Absorbance 490 nm, replicate 2” value in series [1] (10 μM), in [1] (30 μM) and in series [1] (50 μM) were 0.633, 0.616 and 0.621, respectively. Further, the figures for the “Absorbance 490 nm, replicate 3” value in series [1] (10 μM), in series [1] (30 μM) and in [1] (50 μM) were 0.705, 0.58 and 0.610, respectively. Also, the “Absorbance 490 nm, replicate 4” value in [1] (10 μM) came to 0.593; in series [1] (30 μM) it was 0.628; in series [1] (50 μM), 0.610. In addition, the “Mean value (absorbance)” value in [1] (10 μM) stood at 0.658; in series [1] (30 μM), 0.620; in series [1] (50 μM), 0.626. Moreover, the results for the “Cell viability (%)” value in [1] (10 μM), in series [1] (30 μM) and in series [1] (50 μM) were 82.4%, 77.6% and 78.4%, respectively. The “Effect on the proliferation of the PBMCs” value in series [1] (Table 3 summary) is on record as “certain effect on the proliferation of the cells”. The “Relative ratio of ATP/total protein, Mean value (%)” value with rat cardiomyocytes (10 μM) is 89.87%; with rat cardiomyocytes (30 μM), 83.33%; in the series on rat cardiomyocytes (50 μM), 76.03%. The “Relative ratio of ATP/total protein, replicate 1” value in the series on rat cardiomyocytes (10 μM) came out at 90.0%; in the series on rat cardiomyocytes (30 μM) it was 85.1%; in the series on rat cardiomyocytes (50 μM), 77.5%. In addition, the “Relative ratio of ATP/total protein, replicate 2” value in the series on rat cardiomyocytes (10 μM) was found to be 88.2%; in the series on rat cardiomyocytes (30 μM), 83.3%; in the series on rat cardiomyocytes (50 μM), 76.7%. Also, the entries for the “Relative ratio of ATP/total protein, replicate 3” value with rat cardiomyocytes (10 μM), in the series with rat cardiomyocytes (30 μM) and in the series on rat cardiomyocytes (50 μM) were 91.4%, 81.6% and 73.9%, respectively. In addition, in series [10] (day 1), the “Tumor volume on 1st day” value turned out to be 30.55 mm^3. In series [10] (day 3), the “Tumor volume on 3rd day” value came out at 78.81 mm^3. In series [10] (day 6), the “Tumor volume on 6st day” value was 257.8812 mm^3. Moreover, the “Tumor volume on 8th day” value in series [10] (day 8) was determined as 389.6022 mm^3. In addition, in series [10] (day 10), the “Tumor volume on 10th day” value was 552.7308 mm^3.

On to `CC(=O)O[C@H]1C(=O)[C@@]2(C)[C@H]([C@H](OC(=O)c3ccccc3)[C@]3(O)C[C@H](OC(=O)[C@H](O)[C@@H](NC(=O)c4ccccc4)c4ccccc4)C(C)=C1C3(C)C)[C@]1(OC(C)=O)CO[C@@H]1C[C@@H]2O` [Paclitaxel, paclitaxel], for which the inhibition at 10 µM in [3] is 17.3%. In series [1] (setting [12]), the “Absorbance 490 nm, replicate 1” value is listed as 0.712; the “Absorbance 490 nm, replicate 2” value turned out to be 0.743; the “Absorbance 490 nm, replicate 3” value was 0.683; the “Absorbance 490 nm, replicate 4” value is 0.650. In addition, in [1] (setting [12]), the “Mean value (absorbance)” value was determined as 0.697 and the “Cell viability (%)” value worked out at 87.2%. For the same compound, 10 µM produced 28.8% inhibition in [4]. Besides, at 10 µM the inhibition in series [2] was 89.6%.

Regarding `COc1cccc2c1C(=O)c1c(O)c3c(c(O)c1C2=O)C[C@@](O)(C(=O)CO)C[C@@H]3O[C@H]1C[C@H](N)[C@H](O)[C@H](C)O1` [Adriamycin, adriamycin], in [1] (setting [12]), the “Absorbance 490 nm, replicate 1” value is 0.482; the “Absorbance 490 nm, replicate 2” value turned out to be 0.482; the “Absorbance 490 nm, replicate 3” value was found to be 0.496; the “Absorbance 490 nm, replicate 4” value stood at 0.530. Moreover, in [1] (setting [12]), the “Mean value (absorbance)” value is listed as 0.498 and the “Cell viability (%)” value came to 62.3%. For the same compound, the “Toxicity on the cardiomyocytes” value in the series on rat cardiomyocytes is “obvious toxicity on the cardiomyocytes”. Also, in the series on rat cardiomyocytes (10 μM), the “Relative ratio of ATP/total protein, Mean value (%)” value is 46.97%; the “Relative ratio of ATP/total protein, replicate 1” value is 47.3%; the “Relative ratio of ATP/total protein, replicate 2” value is reported as 43.1%; the “Relative ratio of ATP/total protein, replicate 3” value was 50.5%.

Values taken from US9655875B2, “Method of treating or preventing tumors using 1-(alkylsulfinyl)-2-isothiocyanatoalkyl-1-alkene” (BEIJING UNIVERSITY OF CHEMICAL TECHNOLOGY, priority 2013, dated 2017).
